In ChEMBL document CHEMBL1149726, “New Pentacyclic Compounds from the Okinawan Marine Sponge Xestospongia sapra” (J Nat Prod, 1992) one finds MIC, Activity and IC50 data, which are given here for six molecules.

Converted amounts (≈) assume the structure as drawn.

For assay [1], the target named is T1, DNA topoisomerase 1 (Homo sapiens) (UniProt P11387).
T1 sequence (whole entry): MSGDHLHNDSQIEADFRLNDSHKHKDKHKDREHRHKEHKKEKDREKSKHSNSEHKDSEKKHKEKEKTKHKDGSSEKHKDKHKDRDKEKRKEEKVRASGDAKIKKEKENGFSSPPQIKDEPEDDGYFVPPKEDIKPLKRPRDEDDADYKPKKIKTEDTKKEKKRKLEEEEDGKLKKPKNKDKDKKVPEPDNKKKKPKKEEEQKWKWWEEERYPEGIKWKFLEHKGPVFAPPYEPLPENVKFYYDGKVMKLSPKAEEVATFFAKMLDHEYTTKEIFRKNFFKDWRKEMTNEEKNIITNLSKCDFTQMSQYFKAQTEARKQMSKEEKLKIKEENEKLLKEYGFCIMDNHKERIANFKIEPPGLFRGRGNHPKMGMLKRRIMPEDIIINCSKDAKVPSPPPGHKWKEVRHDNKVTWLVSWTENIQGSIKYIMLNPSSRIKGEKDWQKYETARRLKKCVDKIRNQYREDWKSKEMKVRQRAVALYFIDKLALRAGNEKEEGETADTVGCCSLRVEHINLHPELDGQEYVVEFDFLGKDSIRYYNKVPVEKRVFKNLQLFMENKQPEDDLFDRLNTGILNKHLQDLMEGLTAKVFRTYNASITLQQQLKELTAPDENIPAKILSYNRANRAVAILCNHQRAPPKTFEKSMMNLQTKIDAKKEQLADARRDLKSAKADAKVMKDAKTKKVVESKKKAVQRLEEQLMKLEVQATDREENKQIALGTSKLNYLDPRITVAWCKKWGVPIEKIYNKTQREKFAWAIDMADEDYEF
Briefly: Inhibition of DNA topoisomerase 1.

For assay [2], the system named is L1210. Briefly: Cytotoxicity against mouse L1210 cells at 10 ug/ml. The format is functional.
For assay [3], the system named is KB. The assay can be described thus: Cytotoxicity against human KB cells at 10 ug/ml. The format is functional.
Assay [4] has as its system L1210. Briefly: Cytotoxicity against mouse L1210 cells. The format is functional, cell-based.
Assay [5] has as its system KB. Briefly: Cytotoxicity against human KB cells. The class given is functional, cell-based.

In assay [1], `C[C@@]12CC[C@H](O)[C@@H]3COC(=C31)C(=O)c1cc3c(cc12)C(=O)CCC3O` (some centres not stated) registered an MIC of 2.5 µg/mL (≈ 7.34 µM). Further, the Activity worked out at 14.5% in the assay on L1210 [2] and 9.8% in the assay with KB [3].
The molecule `C[C@@]12CCC(=O)c3coc(c31)C(=O)c1cc3c(O)ccc(OS(=O)(=O)[O-])c3cc12.[Na+]` [HALENAQUINOL SULFATE SODIUM] gave an MIC in assay [1] of over 50 µg/mL. Further, the figures for the Activity with L1210 [2] and in the assay on KB [3] were 22.4% and 12.2%, respectively.
In turn, `C[C@@]12CCC(=O)c3coc(c31)C(=O)c1cc3c(cc12)C(=O)C=CC3=O` [HELENAQUINONE] returned an MIC in assay [1] of 0.4 µg/mL (≈ 1.2 µM). The values for the IC50 with L1210 [4] and in the assay on KB [5] were 1.6 µg/mL (≈ 4.81 µM) and 3.1 µg/mL (≈ 9.33 µM), respectively.
Regarding `C[C@@]12CCCc3coc(c31)C(=O)c1cc3c(O)ccc(OS(=O)(=O)[O-])c3cc12.[Na+]` [XESTOQUINOL SULFATE SODIUM], the MIC in assay [1] was 10 µg/mL. The Activity in the assay on L1210 [2] worked out at 25.4%.
Turning to `C[C@@]12CCCc3coc(c31)C(=O)c1cc3c(cc12)C(=O)C=CC3=O` [XESTOQUINONE], the MIC in assay [1] came to 2 µg/mL (≈ 6.28 µM). Also, the figures for the IC50 in the assay with L1210 [4] and in the assay with KB [5] were 0.17 µg/mL (≈ 0.534 µM) and 1.7 µg/mL (≈ 5.34 µM), respectively.
In the case of `C[C@@]12CC[C@H](O)[C@@H]3COC(=C31)C(=O)c1cc3c(cc12)C(O)CCC3=O` (some centres not stated) [XESTOSAPROL A], in assay [1], the MIC worked out at 12.5 µg/mL (≈ 36.7 µM). Also, the Activity amounted to 34.9% in the assay with L1210 [2] and 30.1% in the assay with KB [3].
